Data set [1] can be described thus: Acute hepatotoxicity assay: plasma liver markers (ALT, AST, TBIL) in mice. The data set is classed as in vivo, Swiss mice. The settings on record: for ALT / AST / TBil: plasma, 24 h after single intraperitoneal administration; for hepatotoxicity: single intraperitoneal administration, liver markers 24 h later, compared to vehicle-treated group. How it is done: Acute hepatotoxicity assays were performed in Swiss mice. Animals received a single administration of either vehicle, or Fingolimod or a compound of the present invention (compounds from the list indicated previously) by intraperitoneal route. Twenty-four hours later, animals were sacrificed and the levels of liver markers ALT (alanine aminotransferase), AST (aspartate aminotransferase), and TBIL (total bilirubin) in plasma were determined. An increase in liver markers in this model indicates the potential of that compound to cause liver toxicity in humans at lower doses following longer exposures. Table 2: Plasma levels of liver markers of mice 24 h after treatment with either vehicle or test compounds No.142, No.171 or fingolimod.

For a further data set, the target named is S1P1 receptor (Homo sapiens, UniProt P21453). Kind of data set: 35S-GTPyS binding assay. It is filed as biochemical. Conditions: membranes, 90 min at room temperature. As to the method: The effect of the compounds was measured using a 35S-GTPyS binding assay. Briefly, membranes were incubated in a buffer containing 20 mM HEPES pH 7.4, 100 mM NaCl, 10 mM MgCl2, 10µM GDP, 50µg/ml saponin and 0.2% fatty acid-free BSA at various concentrations (0.1nM-10µM) and 0.1nM 35S-GTPyS. 10µM […] was used as 100% maximum efficacy. The assay was incubated for 90 min at room temperature with gentle mixing, and terminated by filtrating the reaction mixture through GF/C filter plates using the Manifold Filtration System. The filters were immediately washed with sodium phosphate pH 7.4 buffers. After drying the filter plates scintillant liquid were added to each well and 35S-GTPyS binding was measured on a Trilux Scintillation Counter.
S1P1 receptor, sequence (P21453 whole entry): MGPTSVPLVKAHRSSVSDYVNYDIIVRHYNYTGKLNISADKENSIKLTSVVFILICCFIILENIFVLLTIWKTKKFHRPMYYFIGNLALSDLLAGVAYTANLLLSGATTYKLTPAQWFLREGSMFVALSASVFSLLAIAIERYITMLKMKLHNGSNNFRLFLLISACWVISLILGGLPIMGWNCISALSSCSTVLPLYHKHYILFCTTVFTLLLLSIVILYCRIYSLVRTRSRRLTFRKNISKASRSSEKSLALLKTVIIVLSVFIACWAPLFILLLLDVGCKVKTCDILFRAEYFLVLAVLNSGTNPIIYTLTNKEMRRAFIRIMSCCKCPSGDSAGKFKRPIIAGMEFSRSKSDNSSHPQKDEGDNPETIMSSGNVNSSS

The nature of another data set: in vivo. The settings on record: Wistar, rat, iv, 1 mg/kg.
The next data set relates to lymphocytes in blood. Kind of data set: Recovery of lymphopenia in rats after a single oral administration. It is filed as in vivo. Conditions: Wistar rats, single oral dose that caused maximal lymphopenia. As to the method:
Test compounds were administered by oral route to Wistar rats at a dose of each compound that caused maximal lymphopenia. At several times after administration, animals were anestesized and blood extracted from retroorbital plexus and collected into heparinized tubes. Total lymphocyte numbers were determined using a Sysmex K-800 haemocytometer. [formula]

Each structure is given as a SMILES string.

Description for in vivo: Rats were administered with 1 mg/kg of test compounds by intraveneous route to Wistar rats. Blood samples were collected from retroorbital plexus at several time points after administration and plasma levels of compounds were quantified by MS-HPLC.

In data set [1] (100 mg/kg), `Cc1cc(-c2noc(-c3nn(C)c4c3CCC(C)(C)C4)n2)cc(C)c1CCN1CCC(C(=O)O)CC1` [Compound 142, 1-(2-{2,6-dimethyl-4-[5-(1,6,6-trimethyl-4,5,6,7-tetrahydro-1H-indazol-3-yl)-1,2,4-oxadiazol-3-yl]phenyl}ethyl)piperidine-4-carboxylic acid] displayed an ALT of 45 ± 5 IU/L, an AST of 87 ± 9 IU/L and a TBil of 0.3 ± 0.1 mg/dL. Besides, in data set [1], the hepatotoxicity result is recorded as “lack of hepatotoxicity”. In addition, on S1P1 receptor, the EC50 worked out at 8.7 nM. In the data set “in vivo”, the AUC(0-t) was 2630 ng·h/mL, the peak concentration (Cmax) is 824 ng/mL, the Tmax turned out to be 6 min and the half-life was 3.5 h.

In data set [1] (100 mg/kg), `Cn1nc(-c2nc(-c3ccc(CCN4CCC(C(=O)O)CC4)c(C(F)(F)F)c3)no2)c2c1CC(C)(C)CC2` [Compound 171, 1-(2-{2-(trifluoromethyl)-4-[5-(1,6,6-trimethyl-4,5,6,7-tetrahydro-1H-indazol-3-yl)-1,2,4-oxadiazol-3-yl]phenyl}ethyl)piperidine-4-carboxylic acid] came in with an ALT of 42 ± 13 IU/L, an AST of 66 ± 7 IU/L and a TBil of 0.5 ± 0.04 mg/dL. Also, the hepatotoxicity result in data set [1] is “lack of hepatotoxicity”. On S1P1 receptor, this molecule came in with an EC50 of 18.8 nM. In the data set “in vivo”, the AUC(0-t) was 6230 ng·h/mL, the peak level (Cmax) was 986 ng/mL, the Tmax stood at 6 min and the half-life is 8.2 h.

In data set [1] (30 mg/kg), `CCCCCCCCc1ccc(CCC(N)(CO)CO)cc1` [Fingolimod, reference compound] registered an ALT of 59 ± 62 IU/L, an AST of 354 ± 70 IU/L and a TBil of 0.12 ± 0.01 mg/dL. Also, in data set [1] (100 mg/kg), the ALT was 355 ± 60 IU/L, the AST stood at 589 ± 73 IU/L and the TBil is 0.16 ± 0.02 mg/dL. Also, the hepatotoxicity entry in data set [1] is “high hepatotoxicity”. Also, in the data set with lymphocytes in blood, the “time after administration to recover lymphocytes in blood” value is recorded as 144 h. Further, in “in vivo”, the AUC(0-t) amounted to 279 ng·h/mL, the Cmax came out at 50.5 ng/mL, the Tmax worked out at 6 min and the half-life is 26.1 h.

What is called EC50 is the concentration giving half of the maximal effect. Read a low EC50 as a more potent agent. As usually defined, the AUC(0-t) is exposure summed from dosing to a finite time, without extrapolation to infinity. By Cmax is commonly meant the maximum level reached in the sampled fluid or tissue. The term Tmax denotes the time at which the peak concentration occurs. As a reminder, the half-life is the time needed for the level to fall by half in the phase considered. Low values mean rapid decline, high ones slow decline.
